The assay relates to B6C3F1 mice, B16 melanoma ip, median survival T/C. Briefly: NCI In Vivo Anticancer Drug Screen. Data for tumor model B16 Melanoma (intraperitoneal) in B6C3F1 mice. To be noted: endpoint: median survival time, higher = longer survival. Put shortly:
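Antitumor effect was judged in mice with transplanted tumors by dividing the treated group's survival measure by that of vehicle controls.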

Setting [1] is: dose: 25.0 mg/kg/injection, schedule: Q01DX009 (ip), vehicle: Klucel (hydroxypropylcellulose) (HPC).
Where [2] appears, read: dose: 50.0 mg/kg/injection, schedule: Q01DX009 (ip), vehicle: Klucel (hydroxypropylcellulose) (HPC).
[3] abbreviates: dose: 1.56 mg/kg/injection, schedule: Q01DX009 (ip), vehicle: saline with Tween-80.
Setting [4] is: dose: 3.12 mg/kg/injection, schedule: Q01DX009 (ip), vehicle: saline with Tween-80.
[5] abbreviates: dose: 6.25 mg/kg/injection, schedule: Q01DX009 (ip), vehicle: saline.
[6] abbreviates: dose: 100.0 mg/kg/injection, schedule: Q01DX009 (ip), vehicle: saline with Tween-80.
Setting [7] is: dose: 6.25 mg/kg/injection, schedule: Q01DX009 (ip), vehicle: saline with Tween-80.
The mark [8] stands for this setting: dose: 12.5 mg/kg/injection, schedule: Q01DX009 (ip), vehicle: saline with Tween-80.
Where [9] appears, read: dose: 25.0 mg/kg/injection, schedule: Q01DX009 (ip), vehicle: saline with Tween-80.
[10] abbreviates: dose: 50.0 mg/kg/injection, schedule: Q01DX009 (ip), vehicle: saline with Tween-80.
Setting [11] is: dose: 100.0 mg/kg/injection, schedule: Q01DX009 (ip), vehicle: Klucel (hydroxypropylcellulose) (HPC).
Where [12] appears, read: dose: 12.5 mg/kg/injection, schedule: Q01DX009 (ip), vehicle: saline.
[13] abbreviates: dose: 25.0 mg/kg/injection, schedule: Q01DX009 (ip), vehicle: saline.
The mark [14] stands for this setting: dose: 50.0 mg/kg/injection, schedule: Q01DX009 (ip), vehicle: saline.
Setting [15] is: dose: 100.0 mg/kg/injection, schedule: Q01DX009 (ip), vehicle: saline.

This is an account of results in PubChem BioAssay AID200 (DTP/NCI, 2004).

Several values for one entry are separate records, joined by “and”; a condition that tells them apart may be missing. Equal values may be shown once. Inconclusive results and toxic doses are left out. *1 amine or outer side, *2 acyl side, *3 side chain or, on linkers, in order; H or OH if unused. Where a SMILES comes first, the peptide text is derived from it. Bridges are numbered along the chain shown (N, C = ends). Roman numbers before positions name the chains, in order. [ ]: non-standard residue; d: D form. Actinocin(1to9) = Cc1c2oc3c(C)ccc(C(=O)[*:2])c3nc-2c(C(=O)[*:1])c(N)c1=O; X1 = COC(=O)CCN(CC(=O)[*:2])[*:1]; NMeA = CN[CH](C)C(=O)O

`Cc1ccc2c(ccc(CC(=S)[S-])[n+]2C)c1`: the T/C is, setting by setting: (dose: 6.25 mg/kg/injection, schedule: Q01DX009 (ip), vehicle: Klucel (hydroxypropylcellulose) (HPC)) 92 % of control and 93 % of control; (dose: 12.5 mg/kg/injection, schedule: Q01DX009 (ip), vehicle: Klucel (hydroxypropylcellulose) (HPC)) 92 % of control and 99 % of control; under setting [1], 87 % of control and 88 % of control; under setting [2], 89 % of control.
As for `COC1/C=C/C=C(/C)Cc2cc(O)c(Cl)c(c2)N(C)C(=O)CC(OC(=O)C(C)C)C2(C)OC2C(C)C2CC1(O)NC(=O)O2` (centres undefined), the T/C (dose: 0.25 mg/kg/injection, schedule: Q01DX009 (ip), vehicle: saline + alcohol) was 155 % of control; the T/C (dose: 0.5 mg/kg/injection, schedule: Q01DX009 (ip), vehicle: saline + alcohol) was 150 % of control; the T/C (dose: 25.0 micrograms/kg/injection, schedule: Q01DX009 (ip), vehicle: saline + alcohol) was 120 % of control; the T/C (dose: 400.0 micrograms/kg/injection, schedule: Q01DX009 (ip), vehicle: saline + alcohol) is 151 % of control.
On to `CO[C@@H]1[C@H](O)CC[C@]2(CO2)[C@H]1[C@@]1(C)O[C@@H]1CC=C(C)C`, for which the T/C under setting [3] was 102 % of control and 105 % of control; the T/C under setting [4] is 108 % of control and 109 % of control and 122 % of control; the T/C (dose: 3.13 mg/kg/injection, schedule: Q01DX009 (ip), vehicle: saline) is 108 % of control; the T/C under setting [5] was 111 % of control; the T/C under setting [6] was 104 % of control.
`CCCCNP1(NCCCC)=NP(NCCCC)(NCCCC)=NP(NCCCC)(NCCCC)=NP(NCCCC)(NCCCC)=N1`: the T/C is, setting by setting: under setting [7], 111 % of control and 98 % of control; under setting [8], 115 % of control and 122 % of control and 101 % of control; under setting [9], 119 % of control and 104 % of control; under setting [10], 115 % of control.
Turning to `CCOC(=O)c1[nH]c2cccc3c2c1CC(Br)C3=O` (centres undefined), the T/C (dose: 12.0 mg/kg/injection, schedule: Q01DX009 (ip), vehicle: saline with Tween-80) is 98 % of control; the T/C under setting [9] is 93 % of control; the T/C under setting [10] was 100 % of control.
As to `O=C(NC(Cc1ccccc1)C(=O)O)OCc1ccccc1` (centres undefined), the T/C reads like this: under setting [2], 99 % of control; under setting [11], 102 % of control.
`CC(=O)OC1C(C)OC(OC(=O)C2CCC3C(C2)OC2(CC(OC(=O)/C=C/c4ccccc4)C(C)CO2)C32CO2)C(OC2OC(C)C(O)C(OC(C)=O)C2O)C1O` (centres undefined): the T/C is, setting by setting: (dose: 0.75 mg/kg/injection, schedule: Q01DX009 (ip), vehicle: saline + alcohol) 100 % of control; (dose: 1.5 mg/kg/injection, schedule: Q01DX009 (ip), vehicle: saline + alcohol) 99 % of control; (dose: 3.0 mg/kg/injection, schedule: Q01DX009 (ip), vehicle: saline + alcohol) 99 % of control; (dose: 4.0 mg/kg/injection, schedule: Q01DX009 (ip), vehicle: saline + Tween-80 + alcohol) 122 % of control; (dose: 16.0 mg/kg/injection, schedule: Q01DX009 (ip), vehicle: saline + Tween-80 + alcohol) 161 % of control; (dose: 32.0 mg/kg/injection, schedule: Q01DX009 (ip), vehicle: saline + Tween-80 + alcohol) 174 % of control. Besides, the T/C (dose: 64.0 mg/kg/injection, schedule: Q01DX009 (ip), vehicle: saline + Tween-80 + alcohol) is 201 % of control.
Consider `Cn1c2ccccc2c(=O)c2c(O)cc3c(c21)C=CC(C)(C)O3`, for which the T/C was 86 % of control under setting [1], 89 % of control under setting [2] and 96 % of control under setting [11].
Take `O=S1(=O)C=C(c2ccccc2)C(c2ccccc2)=C1`: the T/C runs as follows: under setting [4], 92 % of control and 98 % of control; under setting [7], 95 % of control; under setting [8], 113 % of control and 94 % of control; under setting [9], 106 % of control; under setting [10], 119 % of control.
For `C=COC(=O)C(Cc1ccccc1)NC(=O)OCc1ccccc1` (centres undefined), the T/C was 102 % of control under setting [9]; 98 % of control under setting [10]; 96 % of control under setting [6]; 102 % of control (dose: 200.0 mg/kg/injection, schedule: Q01DX009 (ip), vehicle: saline with Tween-80); 90 % of control (dose: 400.0 mg/kg/injection, schedule: Q01DX009 (ip), vehicle: saline with Tween-80).
Take `Brc1c(NC2=NCCN2)ccc2nccnc12`: the T/C runs as follows: (dose: 1.56 mg/kg/injection, schedule: Q01DX009 (ip), vehicle: saline) 100 % of control; (dose: 3.12 mg/kg/injection, schedule: Q01DX009 (ip), vehicle: saline) 96 % of control; under setting [5], 102 % of control; under setting [12], 94 % of control and 106 % of control; under setting [13], 109 % of control and 102 % of control; under setting [14], 112 % of control and 104 % of control.
Consider `COC(=O)CCN1CC(=O)N(C)C(C)C(=O)OC(C)C(NC(=O)c2c3nc4c(C(=O)NC5C(=O)NC(C(C)C)C(=O)N6CCCC6C(=O)N(CCC(=O)OC)CC(=O)N(C)C(C)C(=O)OC5C)ccc(C)c4oc-3c(C)c(=O)c2N)C(=O)NC(C(C)C)C(=O)N2CCCC2C1=O` (centres undefined) (I: TVP[X1][NMeA] / II: TVP[X1][NMeA]; ester I:1-I:C, II:1-II:C; linker I:N-II:N via Actinocin(1to9); configuration not given here), for which the T/C was 109 % of control (dose: 0.25 mg/kg/injection, schedule: Q04DX003 (ip), vehicle: saline + alcohol); 105 % of control (dose: 0.5 mg/kg/injection, schedule: Q04DX003 (ip), vehicle: saline + alcohol); 98 % of control and 104 % of control (dose: 1.0 mg/kg/injection, schedule: Q04DX003 (ip), vehicle: saline + alcohol); 118 % of control and 102 % of control (dose: 2.0 mg/kg/injection, schedule: Q04DX003 (ip), vehicle: saline + alcohol); 114 % of control (dose: 4.0 mg/kg/injection, schedule: Q04DX003 (ip), vehicle: saline + alcohol); 121 % of control (dose: 8.0 mg/kg/injection, schedule: Q04DX003 (ip), vehicle: saline + alcohol).
With `ClC1=C(Cl)C2(Cl)C3C(Cl)C(Cl)CC3C1(Cl)C2(Cl)Cl` (centres undefined), the T/C under setting [3] is 106 % of control; the T/C under setting [4] is 98 % of control; the T/C under setting [7] was 101 % of control; the T/C under setting [8] is 97 % of control; the T/C (dose: 25.0 mg/kg/injection, schedule: Q01DX009 (ip), vehicle: other) was 95 % of control; the T/C under setting [9] was 87 % of control. The T/C is 106 % of control (dose: 50.0 mg/kg/injection, schedule: Q01DX009 (ip), vehicle: other) and 97 % of control (dose: 100.0 mg/kg/injection, schedule: Q01DX009 (ip), vehicle: other).
As to `COc1cc(OC)c(NC(=O)ON2C(=O)c3ccccc3C2=O)cc1Cl`, the T/C under setting [4] was 98 % of control; the T/C under setting [7] is 104 % of control; the T/C under setting [8] was 104 % of control; the T/C under setting [9] was 96 % of control; the T/C under setting [10] is 87 % of control.
Take `CC(O)CNC1c2ccccc2CC1O` (centres undefined): the T/C is 90 % of control under setting [13], 93 % of control under setting [14] and 89 % of control under setting [15].
For the compound `COC(=O)[C@@]12OC[C@]34[C@H]([C@@H](O)[C@@H]1O)[C@@]1(C)CC(=O)C(O)=C(C)[C@@H]1C[C@H]3OC(=O)[C@H](OC(=O)CC(C)C)[C@@H]24`, the T/C reads like this: (dose: 1.0 mg/kg/injection, schedule: Q01DX009 (ip), vehicle: saline + alcohol) 156 % of control and 157 % of control; (dose: 2.0 mg/kg/injection, schedule: Q01DX009 (ip), vehicle: saline + alcohol) 180 % of control.
`CN1[C@@H](CC(=O)c2ccccc2)CCC[C@H]1CC(=O)c1ccccc1`: the T/C is, setting by setting: under setting [13], 104 % of control; under setting [14], 112 % of control; under setting [15], 98 % of control.
For `NCCc1cc(O)c(O)c(O)c1`, the T/C is 106 % of control under setting [12]; 105 % of control under setting [13]; 101 % of control under setting [14]; 98 % of control under setting [15]; 106 % of control (dose: 200.0 mg/kg/injection, schedule: Q01DX009 (ip), vehicle: saline); 96 % of control (dose: 400.0 mg/kg/injection, schedule: Q01DX009 (ip), vehicle: saline).
Take `CCCCCCCCCCCCCCCCS(=O)CC(O)COC(=O)c1ccc(C(=O)OCC(O)CS(=O)CCCCCCCCCCCCCCCC)cc1` (centres undefined): the T/C was 100 % of control (dose: 12.5 mg/kg/injection, schedule: Q01DX009 (ip), vehicle: saline + alcohol); 86 % of control (dose: 25.0 mg/kg/injection, schedule: Q01DX009 (ip), vehicle: saline + alcohol); 87 % of control (dose: 50.0 mg/kg/injection, schedule: Q01DX009 (ip), vehicle: saline + alcohol).
